The text below walks through data of US20110105579A1, “Plant Health Composition” (priority 2008, published 2011).

Structures are written as SMILES.

Assay [1] has as its system Soybeans, variety TMG 103 RR. The assay can be described thus: Soybean field trial: crop emergence and crop establishment after seed treatment (plant count per 5 m row). The settings on record: for Observed efficacy (%) 12 days after planting / Observed efficacy (%) 33 days after planting: increase in number of plants vs control, S6 75, Ia 50 g a.i./100 kg seed; for Number of plants per 5 m distance (mean) 12 days after planting / Number of plants per 5 m distance (mean) 33 days after planting: soybean seed treatment, S6 75 g a.i./100 kg seed, Ia 50 g a.i./100 kg seed; for Number of plants per 5 m distance (mean) 12 days after planting: crop emergence, control 35; for Number of plants per 5 m distance (mean) 33 days after planting: crop establishment, control 34. The assay is classed as in vivo. Here is the method:
Soybeans were grown in 2008 in the Rondonopolis region, Mato Grosso, Brazil. The variety TMG 103 RR was planted at a seeding rate of 45 kg/ha. The trial was setup as randomized bloc design with 4 replications. Plot size was 10 m^2. The soybean seed was treated prior to planting with either orysastrobin (S6), compound Ia or was left untreated (Control). Compound Ia was used as an FS formulation (100 g a.i./L) with a dose rate of 500 ml/100 kg seed (50 g a.i./100 kg). Orysastrobin (S6) was applied as an FS formulation (250 g a.i./L) with a dose rate of 300 ml per 100 kg seed (75 g a.i./100 kg). In the combination treatments of compound Ia and orysastrobin, both formulations were applied in a sequence. The formulations were applied in a total slurry volume of […] of seed.
The observed efficacy (E) of the compounds on crop emergence and crop establishment as an indicator of plant vitality and plant vigor was determined by counting the plants in a row on a distance of 5 m at 12 and 33 days after planting.
The efficacy of the fungicidal treatments was calculated as the increase in the number of plants in the treatments compared to the control (%):
a corresponds to the number in the treated and b corresponds to the number of plants in the untreated (control) plots
The expected efficacy of the combination of the active compounds was estimated using Colby's formula (see example 1 above)

Assay [2] has as its system Corn (Zea maydis var. M314A10) seedlings. The assay can be described thus: Cold tolerance of corn seedlings after seed treatment (seedling mortality after exposure to -5° C.). The assay is classed as in vivo. The settings on record: for Observed efficacy (%) of cold tolerance GS 10 (3 hrs): % decrease of seedling mortality vs untreated control; for Observed efficacy (%) of cold tolerance GS 10 (3 hrs) / Seedling mortality (mean %) GS 10 (3 hrs): S8 2.5 g a.i./100 kg seed, Ia 1 g a.i./100 kg seed; for Seedling mortality (mean %) GS 10 (3 hrs): corn seed treatment, -5° C. for 3 hrs at growth stage 10, recorded 3 days after cold treatment, control 27. As for the experimental part:
Corn (Zea maydis var. M314A10) seeds were treated in a Hege 11 seed treater in a total slurry volume of 1000 ml/100 kg seed. Treatments comprised:
1) Water (control) 2) Pyraclostrobin (S8) (2.5 g a.i./100 kg); 3) Compound Ia (1 g a.i./100 kg); 4) Pyraclostrobin (S8) (2.5 g a.i./100 kg)+compound Ia (1 g a.i./100 kg).
CF Clear Binder (19 ml/100 kg seed) and color coat blue (13 ml/100 kg seed) were added to all treatments including the check. Following seed treatment, seeds were allowed to dry overnight. Seeds were planted in plastic pots (10 cm×10 cm×12 cm). Experiments were conducted using natural soil (sandy loam soil, source NC, U.S.A.). Pots were placed inside the greenhouse in a completely randomized design. Seedlings were grown at 25° C., until they reached growth stages 10 (first leaf through coleoptile, BBCH Scale). At growth stages 10, seedlings were placed in a completely randomized design in a low temperature incubator (Thermo Electron Corporation) and exposed to −5° C. during 3 hrs. At the time of cold exposure, pots were at field capacity. Percentage of seedling mortality for each treatment was recorded 3 days after the cold treatment.
The efficacy of induced cold tolerance (E) was calculated as % decrease of seedling mortality in the treatments compared to the untreated control:
a corresponds to the seedling mortality (%) of the treated plants and b corresponds to the seedling mortality (%) of the untreated (control) plants
The expected efficacy of the combination of the active compounds were estimated using Colby's formula (Colby, S. R., Calculating synergistic and antagonistic responses of herbicide combinations, Weeds, 15, pp. 20-22, 1967) and compared with the observed efficacy.
E=x+y−x·y/100 Colby's formula • E expected efficacy, expressed in % of the untreated control, when using the mixture of the active compounds A and B at the concentrations a and b • x efficacy, expressed in % of the untreated control, when using the active ingredient A at the concentration a • y efficacy, expressed in % of the untreated control, when using the active ingredient B at the concentration b

As for `Cn1cc(C(=O)Nc2ccccc2-c2cc(F)c(F)c(F)c2)c(C(F)F)n1` [Compound Ia, N-(3′,4′,5′-trifluorobiphenyl-2-yl)-3-difluoromethyl-1-methyl-1H-pyrazole-4-carboxamide], in assay [1], the “Observed efficacy (%) 12 days after planting” value turned out to be 40.0%, the “Observed efficacy (%) 33 days after planting” value was 32.3%, the “Number of plants per 5 m distance (mean) 12 days after planting” value was 49 and the “Number of plants per 5 m distance (mean) 33 days after planting” value came to 45. In addition, the “number of plants, as an indicator of plant vigor (in words)” value in assay [1] (vs untreated control, table 6) is “significantly increased”. Besides, in assay [2], the “Observed efficacy (%) of cold tolerance GS 10 (3 hrs)” value came to 15% and the “Seedling mortality (mean %) GS 10 (3 hrs)” value is 23 (b) %. Further, the “seedling mortality, as an indicator of plant vigor (in words)” value in assay [2] (vs water control, table 4) is “significantly decreased”.

Turning to `COC(=O)N(OC)c1ccccc1COc1ccn(-c2ccc(Cl)cc2)n1` [Pyraclostrobin (S8), pyraclostrobin, reference compound], in assay [2], the “Observed efficacy (%) of cold tolerance GS 10 (3 hrs)” value was 22% and the “Seedling mortality (mean %) GS 10 (3 hrs)” value is given as 21 (c) %.

As for `CNC(=O)/C(=N/OC)c1ccccc1CO/N=C(C)/C(=N/OC)C(/C)=N/OC` [Orysastrobin (S6), orysastrobin, reference compound], in assay [1], the “Observed efficacy (%) 12 days after planting” value is on record as 57.1%, the “Observed efficacy (%) 33 days after planting” value came to 52.9%, the “Number of plants per 5 m distance (mean) 12 days after planting” value is 55 and the “Number of plants per 5 m distance (mean) 33 days after planting” value stood at 52.
